Where two headings read alike, the source gives them in different places.
Experiments:
[1] = clinic; cited from earlier work
[2] = system: FGF2(WT), FGF2(−), FGF2(Hi), FGF2(Lo) mice; experiment: In vivo model for acute Doxorubicin effects: mortality and body weight; set-up: species or system mouse; details: for effect on body weight: all groups, 10 days post-injection; for Dox-induced mortality: by day 10 post-Dox
From the text: In vivo model for acute cardiotoxic effects. […] Hearts were then collected for biochemical analyses.

[3] = system: neonatal rat ventricular cardiomyocytes co-cultured with MEFs; experiment: MEF-cardiomyocyte co-cultures exposed to Dox: Troponin T release into medium; assay type: cell-based; details: Dox 0.5 μM, 24 h
Description: In vitro experiments. Neonatal rat ventricular cardiomyocytes (referred to as ‘cardiomyocytes’) were isolated from 1-2 day old rat pups as previously described (10).
MEF-Cardiomyocyte co-cultures. Cardiomyocytes were plated at a density of 5×10^4 cells/cm^2 on collagen (Corning, #354236) coated glass coverslips in the presence of 20% fetal bovine serum (FBS) in Hams F-10 culture medium; 24 hours later the media was changed and MEFS from FGF2(WT), FGF2(−), FGF2(Hi), and FGF2(Lo) strains (2×10^4/cm^2) were added to the cultures in low-serum medium (0.5% FBS, 1% insulin, 1% transferrin/selenium, and 1% ascorbic acid) in Dulbecco's modified Eagle's medium (DMEM). […] Conditioned media were collected 24 h later, and stored at −80° C. Cells attached on coverslips were used for the Calcein-AM/Cobalt chloride mPTP assay.
Primary mouse embryonic fibroblasts (MEFs)-r-cardiomyocyte co-cultures. MEFs were isolated as described (30). R-cardiomyocytes were plated at a density of 5×10^4 cells/cm^2 on collagen (Corning, #354236) coated glass coverslips in the presence of 20% fetal bovine serum (FBS) in Hams F-10 culture medium; 24 hours later the media was changed and MEFS from FGF2(WT) and FGF2(Lo) strains (2×10^4/cm^2) were added to the cultures in low-serum medium (0.5% FBS, 1% insulin, 1% transferrin/selenium, and 1% ascorbic acid) in Dulbecco's modified Eagle's medium (DMEM). […]

[4] = system: r-cardiomyocytes co-cultured with human FibiPSC; experiment: FibiPSC-cardiomyocyte co-cultures exposed to Dox: cTnT release; assay type: cell-based, rat; details: control (IgG) co-cultures with h-FibiPSC; Dox 0.5 μM, 24 h
Description: Fib^iPSC-Cardiomyocyte co-cultures. Cardiomyocytes were plated at a density of 5×10^4 cells/cm^2 on collagen coated plates in the presence of 20% (FBS) in Hams F-10 culture medium. After 24 hours, the media was changed to low serum medium (0.5% FBS, 1% insulin, 1% transferrin/selenium, 1% ascorbic acid, and 1% bovine serum albumin) in Dulbecco's modified Eagle's medium (DMEM). FibiPSC were added to the cultures at a density of 3×10^4/cm^2. Human Hi-FGF2 antibody (Hi-Ab, 20 μg/ml) or non-immune rabbit IgG was added to the culture after 6 hours. The Hi-Ab and rabbit IgG were supplemented in the co-cultures every 24 hours. […] Subsequently, the media was collected and stored at −80° C.
Protein extraction and immunoblotting (western blot).
Hi-FGF2 antibody. Anti-Hi-FGF2 antibody (Hi-Ab) against 12 amino acids from the N-terminal section of the Hi-FGF2 “[…]” (SEQ ID NO:1) was made in rabbit and affinity purified by Genscript. Characterization was done as we described previously, for a similar preparation anti-Hi-FGF2 (9). Affinity purified Hi-Ab was used at a concentration of 20 μg/ml in in vitro models.

[5] = system: Bnip3 protein in hearts of FGF2 mouse strains; details: in vivo
Description: Protein (western) immunoblotting. At the end of the in vivo study, hearts were collected, snap frozen in liquid nitrogen, and stored at −80° C. Hearts were powdered with liquid nitrogen using a mortar and pestle prior to being homogenized in 10 mM Tris-HCl pH 7.4, 100 mM NaCl, 300 mM sucrose, 2 mM MgCl2, 1% thiodiglycol, 60 mM B glycerophosphate, 10 mM NaF and an equal volume of 20% glycerol, 100 mM Tris/HCl PH=6.8, and 2% sodium dodecyl sulphate (SDS). All buffers were supplemented (1:100) with protease inhibitor cocktail (Sigma-Aldrich, #8304) and phosphatase inhibitor cocktail set II and IV (Calbiochem, #524625 and #524628). Samples were boiled, sonicated, and centrifuged 15 minutes at 21,000 g to remove cellular debris. Protein concentration was measured by bicinchoninic acid assay. Following SDS-polyacrylamide gel electrophoresis and protein transfer to polyvinylidene fluoride (PVDF) membranes, total protein was stained using 2% Ponceau S (Sigma-Aldrich, P3504) (w/v) in 30% trichloroacetic acid to assess overall protein transfer. Non-specific binding sites were blocked by incubation in 10% milk/TBS-T for 1 hour at room temperature. […]
Protein extraction and immunoblotting (western blot). […] Protein concentration was measured using the bicinchoninic acid assay from Sigma. […]

cancer patients = details: cited from earlier work

Row | Substance | half life [1] [days] | effect on body weight [2] | effect on body weight ([2]; listed as Doxorubicin) | deaths associated with Dox administration ([2]; female FGF2(WT) and FGF2(Lo) groups) | Dox-induced mortality ([2]; female FGF2(−) mice) [%] | post-Dox mortality ([2]; male FGF2(Hi) mice) [%] | post-Dox mortality ([2]; male FGF2(WT) mice) [%] | Dox-induced mortality ([2]; male FGF2(−) mice) [%] | deaths associated with Dox administration ([2]; males, in either the FGF2(WT) or the FGF2(Lo) group) | deaths post-Dox ([2]; remaining female groups (other than FGF2(−))) | Dox-induced cTnT release ([3]; co-cultures with FGF2(WT) MEFs) | Dox-induced Tn-T release ([3]; co-cultures with FGF2(WT), FGF2(−) and FGF2(Hi) MEFs) | cardiomyocyte damage measured by cTnT release [4] | upregulation of cardiac Bnip3 protein versus saline-treated group [5] [fold] | incidence of cardiotoxicity (cancer patients; cumulative dose 400 mg/m^2) | incidence of cardiotoxicity (cancer patients; cumulative dose 700 mg/m^2)
1 | infliximab | 9.5 | – | – | – | – | – | – | – | – | – | – | – | – | – | – | –
2 | Doxorubicin | – | some weight loss | significantly decreased body weight | No death | 30 | 20 | 10 | 70 | one death in ten animals | No deaths | observed | observed | robust cardiomyocyte damage | 1.5 | 3-5% | 18-48%
3 | pertuzumab | 18 | – | – | – | – | – | – | – | – | – | – | – | – | – | – | –
